Laboratory results from PMC10020809, “A Phase Ib/II Study of WNT974 + Encorafenib + Cetuximab in Patients With BRAF ^V600E-Mutant KRAS Wild-Type Metastatic Colorectal Cancer” (The Oncologist, 2023).
Marks after values point to notes of the source that are not given here. Values belong to the molecule of their own block, whether it stands above or below them.

Tests used:
[1] = Plasma pharmacokinetics, noncompartmental; format: in vivo, human; details: for t 1/2 / AUC(0-t) / AUC / Cmax / half-life: mean (SD); for AUC(0-t) / AUC / Cmax / half-life / Tmax: human, plasma, oral
Protocol: To assess plasma concentrations of WNT974, its active metabolite LHA333, and encorafenib, serial blood samples were collected on days 1 and 15 of cycle 1, and pre-dose blood samples were collected on days 2, 8, 16, and 22 of cycle 1, and on day 1 of cycles 2, 3, and 4. PK parameters were determined using noncompartmental methods. The PK analysis set included all patients with at least one available valid PK concentration measurement who received at least one dose of study drug.

CRC preclinical models = test system: CRC preclinical models; design: method as in PMID 31233627, PMID 28695896, PMID 23847203; details: in vitro and in vivo; cited from earlier work
[2] = test system: patients with BRAF V600E-mutant mCRC with RNF43 mutations or RSPO fusions; experiment: Safety: adverse events (CTCAE v4.03), phase Ib; details: human, in vivo
Protocol: Patients who developed hypercalcemia (any grade) were treated with bisphosphonates per institutional standards.
The primary endpoints of the phase Ib study were the incidence of DLTs and exposure to WNT974 and encorafenib as measured by PK parameters. A DLT was defined as an AE or abnormal laboratory value assessed as unrelated to disease, disease progression, intercurrent illness, or concomitant medications that occurred within the first 28 days of treatment with WNT974 + encorafenib + cetuximab. The secondary endpoints for this study included the objective response rate (ORR; RECIST 1.1), disease control rate (DCR), and frequency and severity of AEs (Common Terminology Criteria for Adverse Events v4.03).
Tumor assessments were performed at baseline (screening) and every 6 weeks after starting study treatment until disease progression, initiation of subsequent antineoplastic therapy, or death, whichever occurred first. End-of-treatment tumor assessment was conducted within 14 days of receiving the last dose or treatment discontinuation. Safety was assessed throughout the study and included physical examinations, vital signs, weight, performance status evaluation, laboratory evaluations, dermatologic evaluations, ophthalmological examinations, bone loss assessments, cardiac assessments, and documentation of all non-serious and serious AEs (SAEs). […]

[3] = test system: patients with advanced solid tumors; design: method as in PMID 33941878; details: cited from earlier work
[4] = test system: patients with advanced solid tumors; HER2-negative breast cancer or pancreatic cancer; details: in vivo; cited from earlier work
[5] = 200 mg, All cohorts, encorafenib 200 mg once daily, day 15 of cycle 1, plasma
[6] = COMBO5, day 15 of cycle 1, plasma
[7] = COMBO7.5, day 15 of cycle 1, plasma
[8] = COMBO10, day 15 of cycle 1, plasma

t 1/2 ([1]; All cohorts, encorafenib 200 mg once daily, day 15 of cycle 1, plasma): 4.29 (2.42)^b h
T max ([1]; All cohorts, encorafenib 200 mg once daily, day 15 of cycle 1, plasma, median (range)): 1.95 (0.48-7.17) h
AUC(0-t) ([1]; 200 mg, All cohorts (N = 17), encorafenib 200 mg once daily, day 15 of cycle 1, plasma): 13700 ng·h/mL
AUC [1, 5]: 13800 ng·h/mL
Cmax [1, 5]: 2840 ng/mL
half-life [1, 5]: 4.3 h
Tmax ([1]; 200 mg, All cohorts, encorafenib 200 mg once daily, day 15 of cycle 1, plasma, median (range)): ~2 h
Molecule: COC(=O)N[C@@H](C)CNc1nccc(-c2cn(C(C)C)nc2-c2cc(Cl)cc(NS(C)(=O)=O)c2F)n1 [Encorafenib, encorafenib]
Mean AUC and maximum plasma drug concentration across treatment combinations ([1]; day 15 of cycle 1): generally comparable across all treatment combinations

Molecule: Cc1cc(-c2ncc(CC(=O)Nc3ccc(-c4cnccn4)cn3)cc2C)ccn1 [WNT974]
Anti-tumor activity (CRC preclinical models): demonstrated anti-tumor activity
Reported serious AEs of bone fracture [2]: 6
AE frequency: decreased appetite ([3]; across all doses): 45.7%
AE frequency: dysgeusia ([3]; across all doses): 50%
AE frequency: fatigue ([3]; across all doses): 31.9%
AE frequency: nausea ([3]; across all doses): 33.0%
AE frequency: vomiting ([3]; across all doses): 30.9%
Bone-related toxicities considered related to the study treatment [3]: 5
Number of bone-related toxicities [3]: 7
Patients who experienced bone-related toxicities [3]: 6 patients
t 1/2 [1, 6]: 4.74 (2.17) h
t 1/2 [1, 7]: 5.37 (0.697) h
Dose dependence of mean AUC ([1]; WNT974 5, 7.5, 10 mg, day 15 of cycle 1): increased in a dose-proportional manner
AUC(0-t) ([1]; COMBO5 (5 mg WNT974 once daily + encorafenib + cetuximab), day 15 of cycle 1, plasma): 220 ng·h/mL
AUC [1, 6]: 227 ng·h/mL
Cmax [1, 6]: 51 ng/mL
half-life [1, 6]: 4.7 h
Tmax ([1]; COMBO5, day 15 of cycle 1, plasma, median (range)): 1 h
AUC(0-t) ([1]; COMBO7.5 (7.5 mg WNT974 once daily + encorafenib + cetuximab), day 15 of cycle 1, plasma): 384 ng·h/mL
AUC [1, 7]: 384 ng·h/mL
Cmax [1, 7]: 93.4 ng/mL
half-life [1, 7]: 5.4 h
Tmax ([1]; COMBO7.5, day 15 of cycle 1, plasma, median (range)): 1.02 h
AUC(0-t) ([1]; COMBO10 (10 mg WNT974 once daily + encorafenib + cetuximab), day 15 of cycle 1, plasma): 460 ng·h/mL
AUC [1, 8]: 542 ng·h/mL
Cmax [1, 8]: 42.9 ng/mL
half-life [1, 8]: 11 h
Tmax ([1]; COMBO10, day 15 of cycle 1, plasma, median (range)): 4 h

B1: vantictumab: an anti-Frizzled antibody, given with chemotherapy (antibody, chains of the INN, looked up, V domains shown)
VH: EVQLVESGGGLVQPGGSLRLSCAASGFTFSHYTLSWVRQAPGKGLEWVSVISGDGSYTYYADSVKGRFTISSDNSKNTLYLQMNSLRAEDTAVYYCARNFIKYVFANWGQGTLVTVSS
VL: DIELTQPPSVSVAPGQTARISCSGDNIGSFYVHWYQQKPGQAPVLVIYDKSNRPSGIPERFSGSNSGNTATLTISGTQAEDEADYYCQSYANTLSLVFGGGTKLTVL
Tolerability / bone safety in phase I trials [4]: closed early due to high rates of bone fracture
